According to US20250262167A1, “COMPOUNDS, TARGETS AND PATHWAYS FOR MACROPHAGE MODULATION” (Massachusetts Institute of Technology, priority 2020, published 2025):

What was measured:
[1] = tested on: bone marrow derived macrophages (BMDMs); assay: Seahorse ECAR (glycolysis) in BMDMs; type: cell-based, mouse; conditions: Pkm−/− BMDMs, 50 nM
Experimental: FIGS. 21A-21I show DPI stimulates glycolysis through GPR3 and β-arrestin2. FIGS. 21A-21B show DPI-stimulated glycolysis is independent of the NOX activity. […] The mean fluorescence intensity (MFI) of 2-NBDG in cells was measured by flow cytometry and normalized to DMSO controls of wildtype BMDMs. Data are presented as the mean±sd (n=3). […] ImKCs were transfected with siRNA specific for Gpr3 or a scramble siRNA as control. […] Data are presented as the mean±sd (n=4). […] Data are presented as the mean±sd (n=12). […] Abbr2^−/− ImKC were constructed by CRISPR-Cas9-mediated gene editing. […] Data are presented as the mean±sd (n=4). […]
Specific parameters for glycolytic capacity and glycolytic reserve were calculated and summarized based on two independent experiments. […]
FIGS. 29A-29B show comparison of DPI's effect on glycolysis in wild-type and Pkm^−/− BMDMs. […] ImKCs were treated with DMSO or DPI alone (500 nM) or DPI plus ERK1/2 inhibitor (SCH772984, […]) for 6 hrs and the enzymatic activities of PKM2 (c) and GAPDH (d) were measured by colorimetric assay kits (Biovision). […]
OCR and ECAR were measured in isolated tissues or cultured ImKCs using the Seahorse XFe Extracellular Flux Analyzer (Agilent). […] Glucose levels were determined using a glucose (GO) assay kit (Sigma). […] Lactate levels were determined using a lactate assay kit (Eton Bioscience). […]

[2] = tested on: human Kupffer cells from NAFLD patients; conditions: 500 nM, ex vivo, 24 hours
Experimental: CD14^+ KCs were sorted from single cell suspension of NAFLD human liver biopsies (n=2) and treated with DMSO or DPI (500 nM) for 24 hrs, followed by RNAseq to quantify gene expression.
Human liver biopsies were obtained from livers procured from deceased donors deemed unacceptable for liver transplantation. Samples were collected with appropriate institutional ethics approval from The First Affiliated Hospital of Jilin University. All experiments were performed in accordance with the relevant guidelines and regulations. In addition, written informed consent was obtained from each subject. During organ retrieval, donor liver grafts were perfused in situ with cold (HTK) solution (Methapharm) to thoroughly flush out circulating cells, leaving only tissue resident cells that are then used to prepare a single-cell suspension to isolate immune cells. The unused liver caudate lobe post liver transplantation was collected and flushed with HBS+EGTA at 4° C. to remove any non-liver resident cells. Single-cell isolation from the resected caudate lobe was performed with a modified two-step collagenase procedure (MacFarland et al. 2017 ACnano). Single cell suspension was stained with anti-CD45 to sort all immune cells for scRNAseq or anti-CD14 to sort KCs for in vitro treatment by flow cytometry (BD Aria).
RNAs were extracted with RNeasy MinElute Kit (Qiagen), converted into cDNA and sequenced using Next-Generation Sequencing (Illumina). RNA-seq data were aligned to the human genome (version hg19) and raw counts of each genes of each sample were calculated with bowtie2 2.2.3 (Langmead et al. 2009) and RSEM 1.2.15 (Li et al. 2011). Differential expression analysis was performed using the program edgeR at P<0.05 with a two-fold change (Robinson et al. 2010). The gene expression level across different samples was normalized and quantified using the function of cpm. DEGs were annotated using online functional enrichment analysis tool DAVID (Huang et al. 2007). […]

Kupffer cells (KCs) = conditions: HFD mice
Experimental: Single cell suspension was prepared from mice from FIG. 24A after 8 weeks on HFD (6 mice per group), stained with anti-F4/80, anti-CD11b and anti-Gr-1. F4/80^+CD11b^+Gr1^low macrophages were purified by cell sorting followed by RNAseq. Shown are differentially expressed genes among the three groups. […] M1-type polarization is expressed as positive scores whereas M2-type polarization is expressed as negative scores.
Mouse livers were dissected and digested with Collagenase IV (Roche). Single cell suspension was stained with anti-F4/80, anti-CD11b and anti-Gr-1. F4/80^+CD11b^+Gr1^low macrophages were sorted by flow cytometry (BD Aria). RNAs were extracted with RNeasy MinElute Kit (Qiagen), converted into cDNA and sequenced using Next-Generation Sequencing (Illumina). RNA-seq data were aligned to the human genome (version hg19) and raw counts of each genes of each sample were calculated with bowtie2 2.2.3 (Langmead et al. 2009) and RSEM 1.2.15 (Li et al. 2011). Differential expression analysis was performed using the program edgeR at P<0.05 with a two-fold change (Robinson et al. 2010). The gene expression level across different samples was normalized and quantified using the function of cpm. DEGs were annotated using online functional enrichment analysis tool DAVID (Huang et al. 2007).

[3] = tested on: hMDM with anti-CD20 labelled human B lymphoma cells (GMB); assay: ADCP of human macrophages; type: cell-based; set-up: dose or concentration left out as unconfirmed; conditions: co-culture 2 hrs
Experimental: Conditioned medium (CM) was collected and filtered. B16F10 melanoma cells were cultured for 12 hrs with CM or CM heat-inactivated at 95° C. for 5 min. The number of tumor cells were quantified by flow cytometry. Data were summarized from two independent experiments. * P<0.05 by T-test. P values are shown based on t-test. […] Mouse BMMs (FIG. 14B) or hMDM (FIG. 14C) were treated with […] thiostrepton for 24 hrs, then co-cultured with equal number of eFluro670 and anti-CD20 labelled human B-cell lymphoma cells for 2 hrs, and analyzed by flow cytometry. Macrophages that have phagocytosed tumor cells are identified as efluro670+ and CD14+. Shown are representative eFluro670 histograms gating on CD14+ macrophages from three different experiments.
To examine whether thiostrepton-activating macrophages or conditioned medium have effects on tumor cell growth, BMMs were treated with thiostrepton for 24 hrs. Equal numbers of primed BMMs and melanoma cells (B16F10) were co-cultured for 12 hrs. […] Thiostrepton elevated ADCP of both human and mouse macrophages (FIGS. 14B-14C).

hMDMs = assay: RNA-seq transcriptional response of hMDMs (GSEA, GO enrichment); type: cell-based, human; conditions: hMDMs, 2.5 μM, 24 hours
Experimental: Duplicate hMDM samples were treated with 2 M2-activating and 6 M1-activating compounds as well as IL-4 and IFNγ for 24 hrs. Gene expression levels were measured by RNA-seq separately. GSEA preranked analysis was performed based on the whole genome gene list ranked on gene expression changes using a gene set of 49 transcriptional modules in response to 29 stimuli in hMDMs. bosut.: bosutinib; alster.: alsterpaullone; mocet.: mocetinostat; thios.: thiostrepton; niclo.: niclosamide; chlor.: chlorhexidine; fenb.: fenbendazole; fluvo.: fluvoxamine. […] Duplicate hMDM samples were stimulated with each ligand and analyzed by RNA-seq separately.
DEGs were identified by edgeR at P<0.05 with at least 2 fold-change.
RNAs were extracted with RNeasy MiniElute kit (Qiagen), converted into cDNA and sequenced using Next-Generation Sequencing (Illumina). […] Differential expression analysis was performed using the program edgeR at P<0.05 with a 2 fold-change. The gene expression level across different samples was normalized and quantified using the function of cpm. Differentially expressed genes were annotated using online functional enrichment analysis tool DAVID (http://david.ncifcrf.gov/). Gene set enrichment analysis were performed with GSEA with FDR q-value<0.05.
Fresh hMDMs were treated with compounds at the EC for 24 hours, followed by RNA-seq.

Row | SMILES | glycolysis, glycolytic capacity and glucose consumption [1] | expression of DAM markers APOE, CLEC10A, TREM2 and C1QA [2] | expression of genes associated with chemokine-mediated signaling, chemotaxis and inflammatory response [2] | expression of glycolytic genes [2] | expression of genes involved in glycolysis, oxidative phosphorylation and fatty acid metabolism in KCs (Kupffer cells (KCs)) | expression of genes involved in inflammation in KCs (Kupffer cells (KCs)) | macrophage polarization index (MPI) of KCs (Kupffer cells (KCs)) | ADCP [3] | expression of M2 chemokine CCL24 (hMDMs) | expression of proinflammatory cytokines TNFα and IL-1β (hMDMs)
1 | c1ccc2c(c1)[I+]c1ccccc1-2 [Diphenyleneiodonium chloride] | did not stimulate any increase | downregulated | suppressed | upregulated | upregulated | significantly suppressed | reprogrammed to an intermediated phenotype | – | – | –
2 | C=C(NC(=O)C(=C)NC(=O)c1csc(C2=N[C@@H]3c4csc(n4)[C@H]4NC(=O)c5csc(n5)[C@H]([C@](C)(O)[C@@H](C)O)NC(=O)[C@H]5CSC(=N5)/C(=C/C)NC(=O)[C@H]([C@@H](C)O)NC(=O)c5csc(n5)[C@]3(CC2)NC(=O)[C@H](C)NC(=O)C(=C)NC(=O)[C@H](C)NC(=O)[C@H]([C@@H](C)CC)N[C@@H]2C=Cc3c([C@H](C)O)cc(nc3[C@H]2O)C(=O)O[C@@H]4C)n1)C(N)=O [Thiostrepton] | – | – | – | – | – | – | – | elevated | down-regulate | polarized to express
